Reference: article PMC11851451 (2025)

Assays:
[1] = tested on: AATT hairpin (ESI-MS, CD) (DNA, hairpin) CGAAATTGCCTCTGCAATTCG; assay: competition ESI-MS; conditions: NH4+ 100 mM (ammonium acetate); 10% methanol, pH 6.8; AATT and TTAA 10 μM each, compound 20 μM
[2] = tested on: TTAA hairpin, 5'-biotin (SPR) (DNA, hairpin) CGTTAAGCTTTCTTAACG; assay: biosensor SPR, steady-state fit; conditions: Na+ 100 mM (Table 1 note 10 mM); 50 mM Tris-HCl, 1 mM EDTA, 0.05% P20, pH 7.4
[3] = tested on: TTAA hairpin (ESI-MS, CD) (DNA, hairpin) CGTTAAGCTTTCTTAACG; assay: circular dichroism titration; conditions: Na+ 100 mM; 50 mM Tris-HCl, 1 mM EDTA, pH 7.4, 25 °C; DNA 5 μM
[4] = tested on: TATA hairpin, 5'-biotin (SPR) (DNA, hairpin) CCTATAGTTTTCTATAGG; assay: biosensor SPR; conditions: Na+ 100 mM (Table 1 note 10 mM); printed as 'Very weak binder'; 50 mM Tris-HCl, 1 mM EDTA, 0.05% P20, pH 7.4; up to 1000 nM
[5] = tested on: AATT hairpin, 5'-biotin (SPR) (DNA, hairpin) CGAAATTGCCTCTGCAATTCG; assay: biosensor SPR, one-site kinetic fit; conditions: Na+ 100 mM (Table 1 note 10 mM); 50 mM Tris-HCl, 1 mM EDTA, 0.05% P20, pH 7.4
[6] = tested on: TTAA hairpin (ESI-MS, CD) (DNA, hairpin) CGTTAAGCTTTCTTAACG; assay: competition ESI-MS; conditions: NH4+ 100 mM (ammonium acetate); 10% methanol, pH 6.8; AATT and TTAA 10 μM each, compound 20 μM
[7] = tested on: d(5'-GCTGCGTTAACGCAGC-3')2 (DNA, duplex) GCTGCGTTAACGCAGC; assay: X-ray crystallography, low resolution; conditions: antiparallel stacked dimer in minor groove; not deposited
[8] = tested on: AATT hairpin, 5'-biotin (SPR) (DNA, hairpin) CGAAATTGCCTCTGCAATTCG; assay: biosensor SPR, steady-state one-site fit; conditions: Na+ 100 mM (Table 1 note 10 mM), 50 mM Tris-HCl, 1 mM EDTA
[9] = tested on: TATA hairpin, 5'-biotin (SPR) (DNA, hairpin) CCTATAGTTTTCTATAGG; assay: biosensor SPR, steady-state fit; conditions: Na+ 100 mM (Table 1 note 10 mM); 50 mM Tris-HCl, 1 mM EDTA, 0.05% P20, pH 7.4
[10] = tested on: TTAA hairpin, 5'-biotin (SPR) (DNA, hairpin) CGTTAAGCTTTCTTAACG; assay: biosensor SPR, steady-state two-site fit; conditions: Na+ 100 mM; 50 mM Tris-HCl, 1 mM EDTA, pH 7.4; site 1 of 2; KA2 5.5 × 10^6; Table 1 KA 6.9 × 10^6
[11] = tested on: TATA hairpin, 5'-biotin (SPR) (DNA, hairpin) CCTATAGTTTTCTATAGG; assay: biosensor SPR, steady-state two-site fit; conditions: Na+ 100 mM; 50 mM Tris-HCl, 1 mM EDTA, pH 7.4; site 1 of 2; KA2 2.6 × 10^6; Table 1 KA 4.2 × 10^6
[12] = tested on: AATT hairpin, 5'-biotin (SPR) (DNA, hairpin) CGAAATTGCCTCTGCAATTCG; assay: biosensor SPR, one-site fit; conditions: Na+ 100 mM (Table 1 note 10 mM); 50 mM Tris-HCl, 1 mM EDTA, 0.05% P20, pH 7.4
[13] = tested on: d(5'-GCTGCGTTAACGCAGC-3')2 (DNA, duplex) GCTGCGTTAACGCAGC; assay: X-ray crystallography, 1.5 Å; conditions: Ca2+ 600 mM (CaCl2, well); HEPES, PEG 400; antiparallel stacked dimer in minor groove

Compound: N=C(N)c1ccc2[nH]c(-c3ccc(-c4ccc(C(=N)N)s4)s3)nc2c1
- binding [1]: yes
- KA [2]: 1.6e+06 M⁻¹
- binding [3]: yes
- binding [4]: weak
- KA [5]: 2.4e+08 M⁻¹
- binding [6]: weak

Compound: N=C(N)c1ccc2[nH]c(-c3ccc(-c4ccc(C(=N)N)o4)o3)nc2c1
- binding [3]: yes
- binding [7]: yes
- KA ([8]; 0.05% P20, pH 7.4): 2.1e+06 M⁻¹
- binding [6]: yes

Compound: N=C(N)c1ccc2cc(-c3ccc(-c4ccc(C(=N)N)s4)o3)[nH]c2c1
- binding [3]: yes
- KA ([8]; 0.05% P20, pH 7.4): 6.5e+06 M⁻¹

Compound: N=C(N)c1ccc2nc(-c3ccc(-c4ccc(C(=N)N)o4)s3)[nH]c2c1
- KA [9]: 700000 M⁻¹
- binding [1]: yes
- KA [2]: 1e+06 M⁻¹
- binding [3]: yes
- KA ([8]; 0.05% P20, pH 7.4 buffer, text b17 prints 3.0 × 10^7): 3.5e+07 M⁻¹
- binding [6]: weak

Compound: N=C(N)c1ccc2cc(-c3ccc(-c4ccc(C(=N)N)o4)s3)[nH]c2c1
- KA [9]: 5.2e+06 M⁻¹
- KA [2]: 2.8e+06 M⁻¹
- KA ([8]; 0.05% P20, pH 7.4): 6.7e+07 M⁻¹

Compound: N=C(N)c1ccc2cc(-c3ccc(-c4ccc(C(=N)N)s4)s3)[nH]c2c1
- KA1 [10]: 8.8e+06 M⁻¹
- KA1 [11]: 6.9e+06 M⁻¹
- KA [12]: 1.5e+08 M⁻¹

Compound: N=C(N)c1ccc2cc(-c3ccc(-c4ccc(C(=N)N)o4)o3)[nH]c2c1
- binding [3]: yes
- KA ([8]; 0.05% P20, pH 7.4): 7.3e+06 M⁻¹

Compound: N=C(N)c1ccc2[nH]c(-c3ccc(-c4ccc(C(=N)N)s4)o3)nc2c1
- binding [1]: weak
- binding [13]: yes
- binding [3]: yes
- KA ([8]; 0.05% P20, pH 7.4): 6.2e+06 M⁻¹
- binding [6]: yes
